Results reported in patent publication US11286263B2, “Macrocyclic fluorine substituted indole derivatives” (The Broad Institute, Inc., priority 2017, dated 2022).
Like-named read-outs stand apart in the source and are kept apart here.

Tests used:
[1] = system: A2780; experiment: Antiproliferation assay A2780 (Assay 7); type: cell-based; conditions: A2780 cells, CellTiter-Glo, single determinations, read-out: IC50 Antiproli A2780
How it was run: (§1)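 Proliferation is determined by CellTiter-Glo luminescence following 72 h incubation with compound at 37 °C, relative to a time-zero plate measured at plating.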

[2] = system: SUDHL5; experiment: Induction of cytotoxicity, SUDHL5 (Assay 6); conditions: Homo sapiens, SU-DHL-5, 5 h, read-out: IC50 Cytotox SUDHL5 [M] (median), SUDHL5 cells, 5 h, CellTiter-Glo
Protocol: In principle, compounds that induce apoptosis will concomitantly induce cell cytotoxicity. Therefore, cytotoxicity assays were run in parallel in SUDHL5 and SUDHL10 cells.
The different cell lines were plated in culture medium (RPMI 1640 [GIBCO #22400-089] supplemented with 10% Fetal Bovine Serum) at a density of 3,300 cells in 30 μl/well in a sterile, solid black, flat bottom, polystyrene, TC-treated 384-well microplate (Corning #3571) using Multidrop Combi Reagent Dispenser. As a control, medium without cells was also added to the plate. Cells were incubated in a humidified incubator at 37° C. overnight. On the next day, the cells were treated with compounds (stock solution, 10 mM in DMSO) using the HP D300 Digital Dispenser in a concentration range of 3.3×10e-5 M (33 μM) to 5×10e-9 M (5 nM) in a single-dot curve with at least 16 dilutions and a DMSO concentration of 0.33%. Rim wells were excluded. The cells were incubated for 5 h hours in a humidified incubator at 37° C. After this incubation, 30 μl of CellTiter-Glo® Luminescent Cell Viability reagent (Promega, G7573) was added to each well using the Multidrop Combi Reagent Dispenser, followed by 15 min incubation on a shaker at room temperature. Finally, luminescence was read at 0.1 ms, with a gain of 3000 using the PHERAstar FS microplate reader (BMG Labtech).
The Bella DRC Master Sheet was used to calculate IC50s, with fixed CI=0 and C0=1.

[3] = target: BCL-2 (Homo sapiens (Human), UniProt P10415); experiment: Protein-protein interaction assay BCL-2/Bad BH3 peptide (BCL-2 assay), TR-FRET; type: binding; conditions: BCL-2/Bad BH3 peptide TR-FRET; median
BCL-2, sequence (P10415 1-211): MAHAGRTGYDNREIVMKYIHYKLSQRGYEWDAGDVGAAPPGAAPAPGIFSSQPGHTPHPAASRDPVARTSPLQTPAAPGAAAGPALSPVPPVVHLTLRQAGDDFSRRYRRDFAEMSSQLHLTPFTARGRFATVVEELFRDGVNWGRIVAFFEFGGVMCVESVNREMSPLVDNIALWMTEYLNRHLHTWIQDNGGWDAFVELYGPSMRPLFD
Protocol: Assay 3 Protein-Protein Interaction assay: BCL-2/Bad BH3 Peptide (BCL-2 Assay)
The dose-dependent inhibition by the compounds described in this invention of the interaction between BCL-2 and the BH3 domain of Bad (both human) was determined using a steady state binding competition assay with time-resolved fluorescence energy transfer (TR-FRET) readout. For that purpose BCL-2 (amino acids 1-211, C-terminal fused to a hexahistidine (6× His) tag (SEQ ID 5) and a synthetic Bad BH3-derived peptide of sequence Biotin-PEG2-PEG2-NLWAAQRYGRELRR-Nle-SDEFVDSFKK-amide (SEQ ID 4) served as protein receptor and tracer ligand respectively. The recombinant BCL-2 protein (expressed in E. coli) was purchased from BPS Bioscience (San Diego, Calif., USA). The Bad BH3-derived peptide can be obtained from e.g. Biosyntan (Berlin, Germany).
In the assay 11 different concentrations of each compound (0.1 nM, 0.33 nM, 1.1 nM, 3.8 nM, 13 nM, 44 nM, 0.15 μM, 0.51 μM, 1.7 μM, 5.9 μM and 20 μM) were typically measured as duplicates in the same microtiter plate. For that, 100-fold concentrated DMSO solutions were prepared by serial dilutions (1:3.4) of a 2 mM stock solution in a clear, 384-well microtiter plate (Greiner Bio-One, Frickenhausen, Germany). From there, 50 nl were transferred in a dark test plate (Greiner Bio-One, Frickenhausen, Germany). The assay was initiated by addition of 2 μl of a 2,5-fold concentrated His-BCL-2 solution (usually for a 1 nM end concentration in 5 μl reaction volume) in aqueous assay buffer [50 mM Tris/HCl pH 7, 100 mM sodium chloride (NaCl), 50 mM potassium fluoride (KF), 0.005% Tween-20, 2 mM DTT, 0.1% bovine gamma globulin (BGG)] to the compounds in the assay plate. This was followed by a 10-minute incubation step at 22° C. for pre-equilibration of the putative complex between His-BCL-2 and the compounds. After that, 3 μl of a 1.67-fold concentrated solution (in assay buffer) consisting of Bad BH3-derived peptide (1 nM end concentration) and TR-FRET detection reagents [1.67 nM anti-His-Eu cryptate and 1.67 nM streptavidin-XL665 (both from Cisbio Bioassays, Codolet, France)], were added.
The mixture was incubated in the dark for one hour at 22° C. and then overnight at 4° C. The formation of BCL-2/Bad complexes was determined by measuring the resonance energy transfer of the anti-His-Eu-cryptate antibody to the streptavidin-XL665 present in the reaction. For that purpose, the fluorescence emission at 620 nm and 665 nm after excitation at 330-350 nm was measured in a TR-FRET measuring instrument, for instance a Rubystar or a Pherastar (both from BMG Lab Technologies, Offenburg, Germany) or a Viewlux (Perkin-Elmer). The ratio of the emission at 665 nm and at 622 nm was used as indicator of the amount of BCL-2/Bad complexes present.
The resulting data (ratio) were normalized, taking 0% inhibition as the mean value of control measurements (usually 32 data points) where all reagents were included. In this case 50 nl DMSO were used instead of compounds. A 100% inhibition corresponded to the mean value of control measurements (usually 32 data points) where all reagents except BCL-2 were included. IC50 values were determined by regression analysis based on a 4 parameter equation (minimum, maximum, IC50, Hill; Y=Max+(Min−Max)/(1+(X/IC50)^Hill) using the Screener Software (Genedata).

[4] = system: SUDHL5; experiment: Antiproliferation assay SUDHL5 (Assay 7); type: cell-based; conditions: Homo sapiens, SU-DHL-5, 72 h, SUDHL5 cells, CellTiter-Glo, median, read-out: IC50 Antiproli SUDHL5 [M] (median)
How it was run: as §1

[5] = system: SUDHL10; experiment: Induction of cytotoxicity, SUDHL10 (Assay 6); conditions: Homo sapiens, SU-DHL10, 5 h, read-out: IC50 Cytotox SUDHL10 [M] (median), SUDHL10 cells, 5 h, CellTiter-Glo

| Structure (SMILES) | IC50 ([1]; 72 h, listed as 09) [µM] | IC50 ([1]; Homo sapiens, A2780, 72 h) [µM] | IC50 [2] [M] | IC50 [3] [µM] | IC50 [4] [M] | IC50 [5] [M] | IC50 ([1]; 72 h) [µM] |
| --- | --- | --- | --- | --- | --- | --- | --- |
| Cc1nn(C)c2c1-c1c(F)ccc3c(CCCOc4cccc5ccccc45)c(C(=O)O)n(c13)C/C=C\COC2 (racemic) [Example 9, (rac)-(Z)-13-fluoro-10,12-dimethyl-1-(3-(naphthalen-1-yloxy)propyl)-4,7,9,10-tetrahydro-pyrazolo[4′,3′:9,10][1]oxa[6]azacycloundecino[8,7,6-hi]indole-2-carboxylic acid] | 20.7 | 23.1 | 2.9e-06 | > 20 | 3.7e-06 | 1.5e-05 | – |
| Cc1nn(C)c2c1-c1c(F)ccc3c(CCCOc4cccc5ccccc45)c(C(=O)O)n(c13)CCCCOC2 (racemic) [Example 10, (rac)-13-fluoro-10,12-dimethyl-1-(3-(naphthalen-1-yloxy)propyl)-4,5,6,7,9,10-hexahydro-pyrazolo[4′,3′:9,10][1]oxa[6]azacycloundecino[8,7,6-hi]indole-2-carboxylic acid] | – | > 33 | 1.8e-06 | > 20 | 1.8e-06 | 3.6e-06 | – |
| CCc1nn(C)c2c1-c1c(F)ccc3c(CCCOc4cccc5ccccc45)c(C(=O)O)n(c13)C/C=C\COC2 (racemic) [Example 11, (rac)-(Z)-12-ethyl-13-fluoro-10-methyl-1-(3-(naphthalen-1-yloxy)propyl)-4,7,9,10-tetrahydro-pyrazolo[4′,3′:9,10][1]oxa[6]azacycloundecino[8,7,6-hi]indole-2-carboxylic acid] | – | 15.3 | 2.3e-06 | > 20 | 2.8e-06 | 7.2e-06 | 23.5 |
| Cc1c2c(nn1C)COCCCCn1c(C(=O)O)c(CCCOc3cccc4c3CCC4)c3ccc(F)c-2c31 (racemic) [Example 19, (rac)-1-(3-((2,3-dihydro-1H-inden-4-yl)oxy)propyl)-13-fluoro-11,12-dimethyl-4,5,6,7,9,11-hexahydropyrazolo[4′,3′:9,10][1]oxa[6]azacycloundecino[8,7,6-hi]indole-2-carboxylic acid] | – | 16.5 | 1.4e-06 | > 20 | 1e-06 | 2.1e-06 | – |
| CCc1c2c(nn1C)COCCCCn1c(C(=O)O)c(CCCOc3cccc4c3CCCC4)c3ccc(F)c-2c31 (racemic) [Example 29, (rac)-12-ethyl-13-fluoro-11-methyl-1-(3-((5,6,7,8-tetrahydronaphthalen-1-yl)oxy)propyl)-4,5,6,7,9,11-hexahydropyrazolo[4′,3′:9,10][1]oxa[6]azacycloundecino[8,7,6-hi]indole-2-carboxylic acid] | – | 9.17 | 1.2e-06 | > 20 | 1.4e-06 | 1.8e-06 | – |
| CCc1c2c(nn1C)COCCCCn1c(C(=O)O)c(CCCOc3cc(C)c(Cl)c(C)c3)c3ccc(F)c-2c31 (racemic) [Example 31, (rac)-1-(3-(4-chloro-3,5-dimethylphenoxy)propyl)-12-ethyl-13-fluoro-11-methyl-4,5,6,7,9,11-hexahydropyrazolo[4′,3′:9,10][1]oxa[6]azacycloundecino[8,7,6-hi]indole-2-carboxylic acid] | – | 12.1 | 2.9e-06 | > 20 | 3e-06 | 3.6e-06 | – |
| Cc1nn(C)c2c1-c1c(F)ccc3c(CCCOc4cccc5cc(F)ccc45)c(C(=O)O)n(c13)CCCCOC2 (racemic) [Example 32, (rac)-13-fluoro-1-(3-((6-fluoronaphthalen-1-yl)oxy)propyl)-10,12-dimethyl-4,5,6,7,9,10-hexahydropyrazolo[4′,3′:9,10][1]oxa[6]azacycloundecino[8,7,6-hi]indole-2-carboxylic acid] | – | 15.2 | 1.1e-06 | > 20 | 8.5e-07 | 2e-06 | – |
| Cc1nn(C)c2c1-c1c(F)ccc3c(CCCOc4ccc(F)c5ccccc45)c(C(=O)O)n(c13)CCCCOC2 (racemic) [Example 33, (rac)-13-fluoro-1-(3-((4-fluoronaphthalen-1-yl)oxy)propyl)-10,12-dimethyl-4,5,6,7,9,10-hexahydropyrazolo[4′,3′:9,10][1]oxa[6]azacycloundecino[8,7,6-hi]indole-2-carboxylic acid] | – | 23.3 | 3.5e-06 | > 20 | 3e-06 | 8.4e-06 | – |
| Cc1nn(C)c2c1-c1c(F)ccc3c(CCCOc4cccc5c4CCCC5)c(C(=O)O)n(c13)CCCCOC2 (racemic) [Example 34, (rac)-13-fluoro-10,12-dimethyl-1-(3-((5,6,7,8-tetrahydronaphthalen-1-yl)oxy)propyl)-4,5,6,7,9,10-hexahydropyrazolo[4′,3′:9,10][1]oxa[6]azacycloundecino[8,7,6-hi]indole-2-carboxylic acid] | – | 20.9 | 2.6e-06 | > 20 | 1.7e-06 | 4.2e-06 | – |
| Cc1nn(C)c2c1-c1c(F)ccc3c(CCCOc4cccc5c4CCC5)c(C(=O)O)n(c13)CCCCOC2 (racemic) [Example 35, (rac)-1-(3-((2,3-dihydro-1H-inden-4-yl)oxy)propyl)-13-fluoro-10,12-dimethyl-4,5,6,7,9,10-hexahydropyrazolo[4′,3′:9,10][1]oxa[6]azacycloundecino[8,7,6-hi]indole-2-carboxylic acid] | – | 15 | 7.1e-06 | > 20 | 6e-06 | 1.5e-05 | – |
| Cc1cc(OCCCc2c(C(=O)O)n3c4c(c(F)ccc24)-c2c(C)nn(C)c2COCCCC3)cc(C)c1Cl (racemic) [Example 36, (rac)-1-(3-(4-chloro-3,5-dimethylphenoxy)propyl)-13-fluoro-10,12-dimethyl-4,5,6,7,9,10-hexahydropyrazolo[4′,3′:9,10][1]oxa[6]azacycloundecino[8,7,6-hi]indole-2-carboxylic acid] | – | 29.5 | 4.3e-06 | > 20 | 3.2e-06 | 9e-06 | – |
| CCc1nn(C)c2c1-c1c(F)ccc3c(CCCOc4cccc5ccccc45)c(C(=O)O)n(c13)CCCCOC2 (racemic) [Example 37, (rac)-12-ethyl-13-fluoro-10-methyl-1-(3-(naphthalen-1-yloxy)propyl)-4,5,6,7,9,10-hexahydro-pyrazolo[4′,3′:9,10][1]oxa[6]azacycloundecino[8,7,6-hi]indole-2-carboxylic acid] | – | > 33 | 2.1e-06 | > 20 | 1.6e-06 | 4.8e-06 | – |
